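Growth conditions: 96-well plates. Treatment: test compound, 48 hours, 5 concentrations. Analysis: linear interpolation between bracketing concentrations; unreached endpoints set to highest concentration. GI50: concentration for 50% inhibition of growth. Definition used: TGI = concentration required for complete inhibition of growth.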
Experiments:
Assay in all cases: inhibition of tumour cell growth, NCI panel, 48 h
786-0 renal = tested on: 786-0 renal
A498 renal = tested on: A498 renal
A549 NSCLC = tested on: A549 NSCLC
ACHN renal = tested on: ACHN renal
BT-549 breast = tested on: BT-549 breast
CAKI-1 renal = tested on: CAKI-1 renal
CCRF-CEM leukemia = tested on: CCRF-CEM leukemia
COLO 205 colon = tested on: COLO 205 colon
DU-145 prostate = tested on: DU-145 prostate
EKVX NSCLC = tested on: EKVX NSCLC
HCC-2998 colon = tested on: HCC-2998 colon
HCT-116 colon = tested on: HCT-116 colon
HCT-15 colon = tested on: HCT-15 colon
HL-60(TB) leukemia = tested on: HL-60(TB) leukemia
HOP-62 NSCLC = tested on: HOP-62 NSCLC
HOP-92 NSCLC = tested on: HOP-92 NSCLC
HS 578T breast = tested on: HS 578T breast
HT29 colon = tested on: HT29 colon
IGROV1 ovarian = tested on: IGROV1 ovarian
K-562 leukemia = tested on: K-562 leukemia
KM12 colon = tested on: KM12 colon
LOX IMVI melanoma = tested on: LOX IMVI melanoma
M14 melanoma = tested on: M14 melanoma
MALME-3M melanoma = tested on: MALME-3M melanoma
MCF7 breast = tested on: MCF7 breast
MDA-MB-231 breast = tested on: MDA-MB-231 breast
MDA-MB-435 = tested on: MDA-MB-435
MDA-MB-468 breast = tested on: MDA-MB-468 breast
MOLT-4 leukemia = tested on: MOLT-4 leukemia
NCI-H226 lung = tested on: NCI-H226 lung
NCI-H23 lung = tested on: NCI-H23 lung
NCI-H460 lung = tested on: NCI-H460 lung
NCI-H522 lung = tested on: NCI-H522 lung
OVCAR-3 ovarian = tested on: OVCAR-3 ovarian
OVCAR-4 ovarian = tested on: OVCAR-4 ovarian
OVCAR-5 ovarian = tested on: OVCAR-5 ovarian
OVCAR-8 ovarian = tested on: OVCAR-8 ovarian
PC-3 prostate = tested on: PC-3 prostate
RPMI-8226 leukemia = tested on: RPMI-8226 leukemia
RXF 393 renal = tested on: RXF 393 renal
SF-268 CNS = tested on: SF-268 CNS
SF-295 CNS = tested on: SF-295 CNS
SF-539 CNS = tested on: SF-539 CNS
SK-MEL-2 melanoma = tested on: SK-MEL-2 melanoma
SK-MEL-28 melanoma = tested on: SK-MEL-28 melanoma
SK-MEL-5 melanoma = tested on: SK-MEL-5 melanoma
SK-OV-3 ovarian = tested on: SK-OV-3 ovarian
SN12C renal = tested on: SN12C renal
SNB-19 CNS = tested on: SNB-19 CNS
SNB-75 CNS = tested on: SNB-75 CNS
SR leukemia = tested on: SR leukemia
SW-620 colon = tested on: SW-620 colon
T-47D breast = tested on: T-47D breast
TK-10 renal = tested on: TK-10 renal
U251 CNS = tested on: U251 CNS
UACC-257 melanoma = tested on: UACC-257 melanoma
UACC-62 melanoma = tested on: UACC-62 melanoma
UO-31 renal = tested on: UO-31 renal

What does the source list for N#Cc1c(NC(=O)c2ccc(C(F)(F)F)cc2)sc2c1CCC(O)=C2?
GI50 (786-0 renal): 5.53 µM; TGI (786-0 renal): 22.1 µM; GI50 (A498 renal): 14 µM; TGI (A498 renal): 34.2 µM; GI50 (A549 NSCLC): 6.36 µM; TGI (A549 NSCLC): 24.1 µM; GI50 (ACHN renal): 6.81 µM; TGI (ACHN renal): 27.9 µM; GI50 (BT-549 breast): 2.82 µM; TGI (BT-549 breast): 19.3 µM; GI50 (CAKI-1 renal): 3.05 µM; TGI (CAKI-1 renal): 16 µM; GI50 (CCRF-CEM leukemia): 3.21 µM; TGI (CCRF-CEM leukemia): > 100 µM; GI50 (COLO 205 colon): 13.4 µM; TGI (COLO 205 colon): 30 µM; GI50 (DU-145 prostate): 6.53 µM; TGI (DU-145 prostate): 22 µM; GI50 (EKVX NSCLC): 7.4 µM; TGI (EKVX NSCLC): 31.4 µM; GI50 (HCC-2998 colon): 7.46 µM; TGI (HCC-2998 colon): 21.2 µM; GI50 (HCT-116 colon): 3.49 µM; TGI (HCT-116 colon): 13.4 µM; GI50 (HCT-15 colon): 3.51 µM; TGI (HCT-15 colon): 15.8 µM; GI50 (HL-60(TB) leukemia): 2.77 µM; TGI (HL-60(TB) leukemia): > 100 µM; GI50 (HOP-62 NSCLC): 4.49 µM; TGI (HOP-62 NSCLC): 17.8 µM; GI50 (HOP-92 NSCLC): 2.85 µM; TGI (HOP-92 NSCLC): 21.9 µM; GI50 (HS 578T breast): 2.32 µM; TGI (HS 578T breast): 14.1 µM; GI50 (HT29 colon): 4.61 µM; TGI (HT29 colon): 18.3 µM; GI50 (IGROV1 ovarian): 5.23 µM; TGI (IGROV1 ovarian): 19 µM; GI50 (K-562 leukemia): 2.23 µM; TGI (K-562 leukemia): > 100 µM; GI50 (KM12 colon): 3.16 µM; TGI (KM12 colon): 13.1 µM; GI50 (LOX IMVI melanoma): 4.56 µM; TGI (LOX IMVI melanoma): 16.8 µM; GI50 (M14 melanoma): 3.6 µM; TGI (M14 melanoma): 15.8 µM; GI50 (MALME-3M melanoma): 2.29 µM; TGI (MALME-3M melanoma): 12 µM; GI50 (MCF7 breast): 3.03 µM; TGI (MCF7 breast): 21.7 µM; GI50 (MDA-MB-231 breast): 2.96 µM; TGI (MDA-MB-231 breast): 14.3 µM; GI50 (MDA-MB-435): 1.23 µM; TGI (MDA-MB-435): 3.31 µM; GI50 (MDA-MB-468 breast): 2.12 µM; TGI (MDA-MB-468 breast): 8.11 µM; GI50 (MOLT-4 leukemia): 4.43 µM; TGI (MOLT-4 leukemia): > 100 µM; GI50 (NCI-H226 lung): 4.03 µM; TGI (NCI-H226 lung): 19.2 µM; GI50 (NCI-H23 lung): 4.91 µM; TGI (NCI-H23 lung): 22 µM; GI50 (NCI-H460 lung): 3.53 µM; TGI (NCI-H460 lung): 14.2 µM; GI50 (NCI-H522 lung): 2.53 µM; TGI (NCI-H522 lung): 12 µM; GI50 (OVCAR-3 ovarian): 3.24 µM; TGI (OVCAR-3 ovarian): 12 µM; GI50 (OVCAR-4 ovarian): 7.47 µM; TGI (OVCAR-4 ovarian): 35 µM; GI50 (OVCAR-5 ovarian): 5.38 µM; TGI (OVCAR-5 ovarian): 25 µM; GI50 (OVCAR-8 ovarian): 5.71 µM; TGI (OVCAR-8 ovarian): 22.3 µM; GI50 (PC-3 prostate): 6.12 µM; TGI (PC-3 prostate): > 100 µM; GI50 (RPMI-8226 leukemia): 3.53 µM; TGI (RPMI-8226 leukemia): > 100 µM; GI50 (RXF 393 renal): 2.38 µM; TGI (RXF 393 renal): 12.7 µM; GI50 (SF-268 CNS): 3.87 µM; TGI (SF-268 CNS): 20.7 µM; GI50 (SF-295 CNS): 4.08 µM; TGI (SF-295 CNS): 16.7 µM; GI50 (SF-539 CNS): 2.1 µM; TGI (SF-539 CNS): 6.92 µM; GI50 (SK-MEL-2 melanoma): 3.21 µM; TGI (SK-MEL-2 melanoma): 11.7 µM; GI50 (SK-MEL-28 melanoma): 6.17 µM; TGI (SK-MEL-28 melanoma): 25.8 µM; GI50 (SK-MEL-5 melanoma): 2.71 µM; TGI (SK-MEL-5 melanoma): 9.4 µM; GI50 (SK-OV-3 ovarian): 4.36 µM; TGI (SK-OV-3 ovarian): 20 µM; GI50 (SN12C renal): 4.08 µM; TGI (SN12C renal): 16.5 µM; GI50 (SNB-19 CNS): 7.46 µM; TGI (SNB-19 CNS): 24.3 µM; GI50 (SNB-75 CNS): 1.12 µM; TGI (SNB-75 CNS): 6.1 µM; GI50 (SR leukemia): 1.48 µM; TGI (SR leukemia): > 100 µM; GI50 (SW-620 colon): 3.13 µM; TGI (SW-620 colon): 14 µM; GI50 (T-47D breast): 3.13 µM; TGI (T-47D breast): 24.9 µM; GI50 (TK-10 renal): 13.3 µM; TGI (TK-10 renal): 50.3 µM; GI50 (U251 CNS): 4.13 µM; TGI (U251 CNS): 16.5 µM; GI50 (UACC-257 melanoma): 6.64 µM; TGI (UACC-257 melanoma): 29.4 µM; GI50 (UACC-62 melanoma): 3.23 µM; TGI (UACC-62 melanoma): 16.2 µM; GI50 (UO-31 renal): 2.12 µM; TGI (UO-31 renal): 16.4 µM

From PubChem BioAssay (NCI)
